# Test results taken from ChEMBL document CHEMBL3046740, “Lonazolac analogues: molecular modeling, synthesis, and in vivo anti-inflammatory activity” (2009).
# Assays:
# Type in all cases: functional
# [1] = test system: Rattus norvegicus; assay: Anti-inflammatory activity in Rattus norvegicus albino (rat) assessed as inhibition of carrageenan-induced paw edema at 50 mg/kg, po administered 30 min before carrageenan challenge measured after 1 hr
# [2] = test system: Rattus norvegicus; assay: Anti-inflammatory activity in Rattus norvegicus albino (rat) assessed as inhibition of carrageenan-induced paw edema at 50 mg/kg, po administered 30 min before carrageenan challenge measured after 4 hr
# [3] = test system: Rattus norvegicus; assay: Anti-inflammatory activity in Rattus norvegicus albino (rat) assessed as inhibition of carrageenan-induced paw edema at 50 mg/kg, po administered 30 min before carrageenan challenge measured after 2 hr
# [4] = test system: Mus musculus; assay: Analgesic activity in Mus musculus (mouse) assessed as paw withdrawal latency time at 50 mg/kg, ip after 30 min; settings: route intraperitoneal
# [5] = test system: Rattus norvegicus; assay: Anti-inflammatory activity in Rattus norvegicus albino (rat) assessed as inhibition of carrageenan-induced paw edema at 50 mg/kg, po administered 30 min before carrageenan challenge measured after 3 hr
# [6] = test system: Rattus norvegicus; assay: Anti-inflammatory activity in Rattus norvegicus albino (rat) assessed as inhibition of carrageenan-induced paw edema at 50 mg/kg, po administered 30 min before carrageenan challenge measured after 24 hr
# [7] = test system: Rattus norvegicus; assay: Anti-inflammatory activity in Rattus norvegicus albino (rat) assessed as inhibition of carrageenan-induced paw edema at 10 mg/kg, po administered 30 min before carrageenan challenge measured after 3 hr
# [8] = test system: Rattus norvegicus; assay: Anti-inflammatory activity in Rattus norvegicus albino (rat) assessed as inhibition of carrageenan-induced paw edema at 10 mg/kg, po administered 30 min before carrageenan challenge measured after 4 hr
# [9] = test system: Rattus norvegicus; assay: Anti-inflammatory activity in Rattus norvegicus albino (rat) assessed as inhibition of carrageenan-induced paw edema at 10 mg/kg, po administered 30 min before carrageenan challenge measured after 2 hr
# [10] = test system: Mus musculus; assay: Analgesic activity in Mus musculus (mouse) assessed as paw withdrawal latency time at 10 mg/kg, ip after 30 min; settings: route intraperitoneal
# [11] = test system: Rattus norvegicus; assay: Anti-inflammatory activity in Rattus norvegicus albino (rat) assessed as inhibition of carrageenan-induced paw edema at 10 mg/kg, po administered 30 min before carrageenan challenge measured after 1 hr
# [12] = test system: Rattus norvegicus; assay: Anti-inflammatory activity in Rattus norvegicus albino (rat) assessed as inhibition of carrageenan-induced paw edema at 10 mg/kg, po administered 30 min before carrageenan challenge measured after 24 hr
compound,measurement,setting,value
O=C(O)CCC(=O)/C=C/c1cn(-c2ccccc2)nc1-c1ccc(Cl)cc1,inhibition in vivo at 50 mg/kg,[1],3.43%
same,inhibition in vivo at 50 mg/kg,[2],8.64%
same,inhibition in vivo at 50 mg/kg,[3],10.9%
same,Time,[4],4.09 s
same,inhibition in vivo at 50 mg/kg,[5],6.32%
same,inhibition in vivo at 50 mg/kg,[6],2.27%
Cc1ccc(-c2nn(-c3ccccc3)cc2/C=C/C(=O)CCC(=O)O)cc1,inhibition in vivo at 50 mg/kg,[1],4.41%
same,inhibition in vivo at 50 mg/kg,[2],13%
same,inhibition in vivo at 50 mg/kg,[3],6.25%
same,Time,[4],6.47 s
same,inhibition in vivo at 50 mg/kg,[5],11.5%
same,inhibition in vivo at 50 mg/kg,[6],3.79%
NC(=O)c1ccccc1NC(=O)c1cn(-c2ccccc2)nc1-c1ccccc1,inhibition in vivo at 50 mg/kg,[1],17.6%
same,inhibition in vivo at 50 mg/kg,[2],9.88%
same,inhibition in vivo at 50 mg/kg,[3],13.5%
same,Time,[4],6.29 s
same,inhibition in vivo at 50 mg/kg,[5],14.4%
same,inhibition in vivo at 50 mg/kg,[6],-3.79%
NC(=O)c1ccccc1NC(=O)c1cn(-c2ccccc2)nc1-c1ccc(Cl)cc1,inhibition in vivo at 50 mg/kg,[1],1.96%
same,inhibition in vivo at 50 mg/kg,[2],9.26%
same,inhibition in vivo at 50 mg/kg,[3],9.38%
same,Time,[4],4.89 s
same,inhibition in vivo at 50 mg/kg,[5],3.45%
same,inhibition in vivo at 50 mg/kg,[6],15.2%
NC(=O)c1ccccc1OC(=O)c1cn(-c2ccccc2)nc1-c1ccc(Br)cc1,inhibition in vivo at 50 mg/kg,[1],26%
same,inhibition in vivo at 50 mg/kg,[2],6.14%
same,inhibition in vivo at 50 mg/kg,[3],10.4%
same,Time,[4],7.4 s
same,inhibition in vivo at 50 mg/kg,[5],8.6%
same,inhibition in vivo at 50 mg/kg,[6],3.09%
CC(=O)Nc1ccc(OC(=O)c2cn(-c3ccccc3)nc2-c2ccc(Cl)cc2)cc1,inhibition in vivo at 50 mg/kg,[1],17.8%
same,inhibition in vivo at 50 mg/kg,[2],16.1%
same,inhibition in vivo at 50 mg/kg,[3],15.6%
same,Time,[4],18.83 s
same,inhibition in vivo at 50 mg/kg,[5],16.7%
same,inhibition in vivo at 50 mg/kg,[6],3.79%
CC(=O)Nc1ccc(OC(=O)c2cn(-c3ccccc3)nc2-c2ccc(C)cc2)cc1,inhibition in vivo at 50 mg/kg,[1],2.94%
same,inhibition in vivo at 50 mg/kg,[2],3.7%
same,inhibition in vivo at 50 mg/kg,[3],4.17%
same,Time,[4],8.32 s
same,inhibition in vivo at 50 mg/kg,[5],6.32%
same,inhibition in vivo at 50 mg/kg,[6],9.09%
O=C(O)CCC(=O)/C=C/c1cn(-c2ccccc2)nc1-c1ccccc1,inhibition in vivo at 50 mg/kg,[1],27.9%
same,inhibition in vivo at 50 mg/kg,[2],23.5%
same,inhibition in vivo at 50 mg/kg,[3],13.5%
same,Time,[4],18.51 s
same,inhibition in vivo at 50 mg/kg,[5],15.5%
same,inhibition in vivo at 50 mg/kg,[6],8.33%
COc1ccc2c(c1)c(CC(=O)O)c(C)n2C(=O)c1ccc(Cl)cc1 [INDOMETHACIN],inhibition in vivo at 10 mg/kg,[7],21.8%
same,inhibition in vivo at 10 mg/kg,[8],24.7%
same,inhibition in vivo at 10 mg/kg,[9],19.3%
same,Time,[10],10.5 s
same,inhibition in vivo at 10 mg/kg,[11],30.9%
same,inhibition in vivo at 10 mg/kg,[12],12.9%
